Data taken from paper PMC12802350, “Opposite effects of spermidine and GC7 in cell culture are dictated by distinct molecular targets” (Biochemical Journal, 2025).

Experiments:
[1] = molecular target: T1, bovine serum amine oxidase (BSAO) (Bos taurus, UniProt Q29437); test: DCHBS/AAP peroxide-coupled kinetic assay with spermidine as substrate, Morrison tight-binding fit; type: biochemical; set-up: BSAO purified from bovine blood
T1 sequence (Q29437 17-762): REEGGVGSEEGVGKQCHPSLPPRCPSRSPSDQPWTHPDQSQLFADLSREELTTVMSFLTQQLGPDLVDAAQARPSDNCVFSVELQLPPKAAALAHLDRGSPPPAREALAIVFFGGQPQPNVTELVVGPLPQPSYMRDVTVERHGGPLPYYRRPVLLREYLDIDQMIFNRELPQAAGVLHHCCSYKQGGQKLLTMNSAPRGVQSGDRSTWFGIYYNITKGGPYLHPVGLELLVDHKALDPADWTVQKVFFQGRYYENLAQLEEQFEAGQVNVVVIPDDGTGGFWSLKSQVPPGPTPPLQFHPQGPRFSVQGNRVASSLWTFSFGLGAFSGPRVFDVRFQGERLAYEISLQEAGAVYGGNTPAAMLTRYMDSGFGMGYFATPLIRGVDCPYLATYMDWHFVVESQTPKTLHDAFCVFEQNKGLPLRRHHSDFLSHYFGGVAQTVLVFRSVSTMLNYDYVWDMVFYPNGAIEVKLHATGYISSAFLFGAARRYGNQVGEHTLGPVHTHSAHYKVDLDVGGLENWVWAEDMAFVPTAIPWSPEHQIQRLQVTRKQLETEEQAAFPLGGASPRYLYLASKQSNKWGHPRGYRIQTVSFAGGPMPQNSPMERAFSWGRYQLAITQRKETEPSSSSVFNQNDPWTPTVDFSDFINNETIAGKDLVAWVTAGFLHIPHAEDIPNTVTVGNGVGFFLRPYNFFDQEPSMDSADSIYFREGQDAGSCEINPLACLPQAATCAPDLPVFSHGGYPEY

[2] = molecular target: T1, bovine serum amine oxidase (BSAO); test: spectrophotometric benzaldehyde formation at […] nm; type: biochemical; set-up: BSAO purified from bovine blood; also decomplemented FBS

Structure (SMILES) | Ki [1] [nM] | spectrophotometric benzaldehyde formation at 250 nm [2]
N=C(N)NCCCCCCCN [GC7] | 308 | –
NCc1ccccc1 [benzylamine] | – | BSAO and decomplemented FBS activities were determined spectrophotometrically as the amount of benzaldehyde formed per min (μmol/min) from benzylamine
